# Starred links: 1 amine or outer side, 2 acyl side, 3 side chain; linkers in the order of their positions; H or OH if unused. Positions of bridges follow the written chain, without caps; N, C: chain ends. Non-standard residues stand in square brackets, D forms with d. Residues, ends and D or L forms follow the SMILES beside them. Phe(4-NO2) = N[C@@H](Cc1ccc([N+](=O)[O-])cc1)C(=O)O; X1 = O=C(CCCCC[*:2])[*:1]; Dab = NCC[C@H](N)C(=O)O
# Key:
# [1] = target: T1, S. Cerevisiae Oligosaccharyl Transferase (Saccharomyces cerevisiae, UniProt P39007); assay: Inhibition kinetics (competitive inhibition) with solubilized yeast oligosaccharyl transferase; glycopeptide production from Dol-P-P-GlcNAc-[3H]-GlcNAc and Bz-Asn-Leu-Thr-NHMe; format: biochemical; details: 37.5 μM Bz-Asn-Leu-Thr-NHMe, control rate 701 dpm min^-1
# T1 construct: a solubilized preparation of the yeast enzyme oligosaccharyl transferase; endogenous in cells; host or cells: Saccharomyces cerevisiae (crude, Triton-solubilized enzyme preparation)
# Description: (§1) Inhibition kinetics with 2 and S. Cerevisiae Oligosaccharyl Transferase:
# (§2) Prior to assaying, 26.3 μL of the crude enzyme were equilibrated for thirty minutes in the presence of 197.4 μL assay buffer (50 mM Hepes, pH 7.5, 1% Triton-X, 140 mM sucrose, 0.5 mg/mL phosphatidylcholine, and 10 mM MnCl2) and 13.15 μL 750 μM Bz-Asn-Leu-Thr-NHMe in DMSO. […] A 100,000 dpm aliquot of Dol-P-P-GlcNAc-[^3 H]-GlcNAc (specific activity 36.5 Ci/mmol) was brought to dryness in an eppendorf. The lipid-linked donor was then redissolved 10 μL assay buffer. The assay was initiated by the addition of 190 μL of the equilibrated enzyme. Four time points were obtained by removing 40 μL aliquots at 1.5 minute intervals. Each aliquot was quenched in a solution of 1.2 mL 3/2/1 chloroform/methanol/4 mM MgCl2. The aqueous layer was removed and the organic layer was washed twice with 0.6 mL TUP. The aqueous layers were combined and counted (dpm) in 5 mL Ecolite (ICN). The organic layers were brought to dryness under nitrogen solvable (200 μL, Dupont) was added to each organic fraction and agitated for 45 minutes. The organic layers were counted (dpm) in 7 mL Formula 989 (DuPont). Glycopeptide production is expressed as disintegrations per minute based on the values obtained from the dpms of the aqueous layer corrected for the total dpms in the aqueous and organic layers combined.
# [2] = substrate: CNC(=O)[C@@H](NC(=O)[C@H](CC(C)C)NC(=O)[C@H](CC(N)=O)NC(=O)c1ccccc1)[C@@H](C)O; assay: as above; format: biochemical, S. Cerevisiae; details: other: competing substrate of OT, used in the Ki equation; pH 7.5
# Description: as §1, §2
rate of glycopeptide production ([1]; 10 nM solution of 2),rate of glycopeptide production ([1]; 100 nM solution of 2),Molecule,Km [2]
572 dpm min^-1,296 dpm min^-1,"CC(C)[C@H](NC(=O)[C@@H](NC(=O)[C@@H]1CSCCCCCC(=O)N[C@@H](CCN)C(=O)N1)[C@@H](C)O)C(=O)N[C@H](C(=O)N[C@@H](Cc1ccc([N+](=O)[O-])cc1)C(N)=O)[C@@H](C)O [Compound 2, Cyclo(Amb-Cys)-Thr-Val-Thr-Nph] ([Dab]CTVT[Phe(4-NO2)]-NH2; linker N-2 via X1)",–
–,–,"S. Cerevisiae Oligosaccharyl Transferase (Saccharomyces cerevisiae S288C) (protein, a solubilized preparation of the yeast enzyme oligosaccharyl transferase; endogenous in cells; host or cells: Saccharomyces cerevisiae (crude, Triton-solubilized enzyme preparation)) MGSDRSCVLSVFQTILKLVIFVAIFGAAISSRLFAVIKFESIIHEFDPWFNYRATKYLVNNSFYKFLNWFDDRTWYPLGRVTGGTLYPGLMTTSAFIWHALRNWLGLPIDIRNVCVLFAPLFSGVTAWATYEFTKEIKDASAGLLAAGFIAIVPGYISRSVAGSYDNEAIAITLLMVTFMFWIKAQKTGSIMHATCAALFYFYMVSAWGGYVFITNLIPLHVFLLILMGRYSSKLYSAYTTWYAIGTVASMQIPFVGFLPIRSNDHMAALGVFGLIQIVAFGDFVKGQISTAKFKVIMMVSLFLILVLGVVGLSALTYMGLIAPWTGRFYSLWDTNYAKIHIPIIASVSEHQPVSWPAFFFDTHFLIWLFPAGVFLLFLDLKDEHVFVIAYSVLCSYFAGVMVRLMLTLTPVICVSAAVALSKIFDIYLDFKTSDRKYAIKPAALLAKLIVSGSFIFYLYLFVFHSTWVTRTAYSSPSVVLPSQTPDGKLALIDDFREAYYWLRMNSDEDSKVAAWWDYGYQIGGMADRTTLVDNNTWNNTHIAIVGKAMASPEEKSYEILKEHDVDYVLVIFGGLIGFGGDDINKFLWMIRISEGIWPEEIKERDFYTAEGEYRVDARASETMRNSLLYKMSYKDFPQLFNGGQATDRVRQQMITPLDVPPLDYFDEVFTSENWMVRIYQLKKDDAQGRTLRDVGELTRSSTKTRRSIKRPELGLRV",25 µM

# From patent publication US5721338A, “Inhibitors of oligosaccharyl transferase” (California Institute of Technology, priority 1995, dated 1998)
